Data taken from patent EP2033635B1, “Use of phenylbutyric acid or salts thereof for treating pruritus” (Asan Laboratories Company (Cayman) Limited, priority 2007, dated 2009).

Assays:
Type in all cases: cell-based
Jurkat T cells [1] = experiment: Real-time PCR gene expression profiling (RT2 Profiler PCR Array Human Th1-Th2-Th3) in Jurkat T cells stimulated with PMA/ionomycin
Experimental: FIGs. […] Jurkat T cells were pre-incubated with phenylbutyrate (1 mM) for 24 hrs, and then stimulated with ionomycin (1 µM) and PMA (10 ng/ml) for 6 hrs. Using real-time PCR, the expression of a panel of genes related to helper T cells with or without T-cell stimulation and phenylbutyrate treatment was analyzed. The array includes cytokine genes representative of Th1, Th2 and Th3 cells, gene encoding transcriptional factors regulating the expression of cytokines as well as other markers of CD4+ T lymphocytes, genes involved in immune cell activation in the Th1 and Th2 type immune responses, and genes involved in the antimicrobial humoral response. Results are the mean ± SE of three determinations, expressed as the fold induction (observed experimental relative unit/basal control relative unit in the absence of any stimuli or treatment);
Jurkat T-cells were nonstimulated or stimulated with ionomycin (1 µM) and PMA (10 ng/ml) for 6 hrs in the absence or presence of pre-incubation of 4-phenylbutyrate sodium (1 mM) for 24 hrs, RNA was extracted and then RT-PCR was performed for profiling the expression of 84 genes related to Th1-Th2-Th3 responses shown in the gene table (FIG. 2).

Jurkat T cells [2] = experiment: Flow cytometry of cell proliferation, cytotoxicity, apoptosis and cell cycle in Jurkat T cells
Experimental: Jurkat T cells were treated in the presence of increasing concentrations of 4-phenylbutyrate, ionomycin, and/or phorbol 12-myristate 13-acetate (PMA) for 24-72 hr at 37°C.

human IL-2 promoter = experiment: Chromatin immunoprecipitation (ChIP) assay of transcription-factor binding and acetyl H3 at the IL-2 promoter in Jurkat T cells; conditions: 4-phenylbutyrate sodium 1 mM 24 hrs, then ionomycin 1 µM and PMA 10 ng/ml 6 hrs
Experimental: The induction of multiple cytokine expression depends on the coordinated activation of transcription factors, mostly including NFκB, NF-AT, and AP-1 (Sancho R, et al. J Immunol 172:2341-51, 2004; Li-Weber M, et al. Eur J Immunol 34 :1111-18, 2004). Because induction of cytokines is regulated mainly at the transcriptional level, chromatin immunoprecipitation (ChIP) analysis in Jurkat T cells was performed to determine the binding of NFκB, NF-AT, and AP-1 to IL-2 promoter. Jurkat T cells were nonstimulated or stimulated with ionomycin (1 µM) and PMA (10 ng/ml) for 6 hrs in the absence or presence of pre-incubation of 4-phenylbutyrate sodium (1 mM) for 24 hrs, then formaldehyde crosslinking between protein and DNA and ChIP using anti- NFκB, NF-AT, AP-1, Sp1 or acetyl H3 antibodies (Santa Cruz) were performed. PCR primers were designed to amplify the human IL-2 promoter: F 5'-[…] (-317 to -292 in the IL-2 promoter), R 5'-[…] (+33 to 58). PCR amplifications used a three-step protocol with 90°C (30 s) denaturing temperature, 59°C (45 s) primer annealing temperature, and 72°C (30 s) enzyme reaction temperature for 35 cycles.

[3] = PMA/ionomycin-induced Jurkat T-cell activation, result in words
[4] = phenylbutyrate 1 mM 24 hrs, then ionomycin 1 µM + PMA 10 ng/ml 6 hrs, mitogen stimulation alone 2.68
[5] = 1 mM for 48 hrs, control versus treated cells, flow cytometry

## O=C([O-])CCCc1ccccc1.[Na+] [Phenylbutyrate, 4-phenylbutyrate sodium]
Jurkat T cells [1]; [3]
  expression of SOCS1, a suppressor of cytokine signaling: upregulates more expression
  induction of Th1 and Th2 cytokines and related genes, T-cell activation markers, immune response genes: completely suppresses or significantly decreases
Jurkat T cells [1]; [4]
  fold induction of CCL7: 1.04 fold
  fold induction of CCL11: 0.98 fold
  fold induction of CCR5: 0.98 fold
  fold induction of IL6: 0.98 fold
  fold induction of IL6R: 0.98 fold
  fold induction of IL9: 0.98 fold
  fold induction of IL12B: 0.98 fold
  fold induction of IL12RB2: 0.98 fold
  fold induction of IL13: 0.98 fold
  fold induction of IL13RA1: 0.98 fold
  fold induction of IL18: 0.98 fold
  fold induction of MAF: 0.98 fold
  fold induction of SFTPD: 0.98 fold
  fold induction of TLR4: 0.98 fold
Jurkat T cells [1]; phenylbutyrate 1 mM 24 hrs, then ionomycin 1 µM + PMA 10 ng/ml 6 hrs, mitogen stimulation alone 3.12
  fold induction of LAT: 1.57 fold
Jurkat T cells [1]; phenylbutyrate 1 mM 24 hrs, then ionomycin 1 µM + PMA 10 ng/ml 6 hrs, mitogen stimulation alone 4.20
  fold induction of CCR2: 0.84 fold
Jurkat T cells [1]; phenylbutyrate 1 mM 24 hrs, then ionomycin 1 µM + PMA 10 ng/ml 6 hrs, mitogen stimulation alone 4.72
  fold induction of JAK2: 2.27 fold
Jurkat T cells [1]; phenylbutyrate 1 mM 24 hrs, then ionomycin 1 µM + PMA 10 ng/ml 6 hrs, mitogen stimulation alone 4.82
  fold induction of SOCS1: 8.59 fold
Jurkat T cells [1]; phenylbutyrate 1 mM 24 hrs, then ionomycin 1 µM + PMA 10 ng/ml 6 hrs, mitogen stimulation alone 5.86
  fold induction of IRF1: 1.7 fold
Jurkat T cells [1]; phenylbutyrate 1 mM 24 hrs, then ionomycin 1 µM + PMA 10 ng/ml 6 hrs, mitogen stimulation alone 7.41
  fold induction of CCR4: 1.93 fold
Jurkat T cells [1]; phenylbutyrate 1 mM 24 hrs, then ionomycin 1 µM + PMA 10 ng/ml 6 hrs, mitogen stimulation alone 7.89
  fold induction of STAT4: 3.32 fold
Jurkat T cells [1]; phenylbutyrate 1 mM 24 hrs, then ionomycin 1 µM + PMA 10 ng/ml 6 hrs, mitogen stimulation alone 11.31
  fold induction of IL1R1: 3.92 fold
Jurkat T cells [1]; phenylbutyrate 1 mM 24 hrs, then ionomycin 1 µM + PMA 10 ng/ml 6 hrs, mitogen stimulation alone 19.97
  fold induction of IL18R1: 0.98 fold
Jurkat T cells [1]; phenylbutyrate 1 mM 24 hrs, then ionomycin 1 µM + PMA 10 ng/ml 6 hrs, mitogen stimulation alone 26.17
  fold induction of IRF4: 16.50 fold
Jurkat T cells [1]; phenylbutyrate 1 mM 24 hrs, then ionomycin 1 µM + PMA 10 ng/ml 6 hrs, mitogen stimulation alone 29.04
  fold induction of TLR6: 10.43 fold
Jurkat T cells [1]; phenylbutyrate 1 mM 24 hrs, then ionomycin 1 µM + PMA 10 ng/ml 6 hrs, mitogen stimulation alone 42.81
  fold induction of IL4R: 9.53 fold
Jurkat T cells [1]; phenylbutyrate 1 mM 24 hrs, then ionomycin 1 µM + PMA 10 ng/ml 6 hrs, mitogen stimulation alone 58.08
  fold induction of BCL3: 19.73 fold
Jurkat T cells [1]; phenylbutyrate 1 mM 24 hrs, then ionomycin 1 µM + PMA 10 ng/ml 6 hrs, mitogen stimulation alone 87.43
  fold induction of CD69: 48.57 fold
Jurkat T cells [1]; phenylbutyrate 1 mM 24 hrs, then ionomycin 1 µM + PMA 10 ng/ml 6 hrs, mitogen stimulation alone 89.26
  fold induction of TNFRSF9: 13.01 fold
Jurkat T cells [1]; phenylbutyrate 1 mM 24 hrs, then ionomycin 1 µM + PMA 10 ng/ml 6 hrs, mitogen stimulation alone 126.24
  fold induction of IFN-gamma: 99.18 fold
Jurkat T cells [1]; phenylbutyrate 1 mM 24 hrs, then ionomycin 1 µM + PMA 10 ng/ml 6 hrs, mitogen stimulation alone 151.17
  fold induction of IL2RA: 64.98 fold
Jurkat T cells [1]; phenylbutyrate 1 mM 24 hrs, then ionomycin 1 µM + PMA 10 ng/ml 6 hrs, mitogen stimulation alone 229.13
  fold induction of CSF2: 88.77 fold
Jurkat T cells [1]; phenylbutyrate 1 mM 24 hrs, then ionomycin 1 µM + PMA 10 ng/ml 6 hrs, mitogen stimulation alone 831.75
  fold induction of IL2: 304.86 fold
Jurkat T cells [2]; [5]
  apoptosis: no significant differences
  cell proliferation: no significant differences
  cytotoxicity: no significant differences
Jurkat T cells [2]; pre-treatment 1 mM for 24 hrs, 48 hrs after stimulation with ionomycin 1 µM plus PMA 10 ng/ml
  entry of the cells into the S phase of the cell cycle: almost completely prevented
Human IL-2 promoter
  DNA binding of AP-1 to IL-2 promoter: decreases
  DNA binding of NF-AT to IL-2 promoter: decreases
  DNA binding of NFκB to IL-2 promoter: decreases
  chromatin structure, acetyl H3 status: altering acetyl H3 status
